From article PMC11909988 (BMC Cancer, 2025)
“Also recorded” adds a separate entry of the source. One block for each compound: values may come before it.

Key:
[1] = test system: IDH1 wildtype U87MG cells; assay: FRET imaging of D2HGlo cellular probes in IDH1 wildtype glioma cells; assay type: cell-based, human; settings: for acute change of Cyto-D2HGlo FRET ratio: approximately 5.5 min
[2] = test system: IDH1-R132H mutant U87MG cells; assay: D-2-HG in cell culture supernatant measured with D2HGlo, mutant cells; assay type: cell-based, human; settings: 48 h
[3] = test system: IDH1-R132H mutant U87MG cells; assay: FRET imaging of D2HGlo cellular probes in IDH1 mutant glioma cells; assay type: cell-based, human
mutant IDH1 = settings: newly diagnosed and advanced cancer; cited from earlier work
D2HGlo = D2HGlo (Achromobacter denitrificans, UniProt A0A6N0JVZ6); assay: Ligand binding and selectivity of purified D2HGlo; settings: for response of D2HGlo (FRET ratio) to metabolite: concentrations up to 100 µM
D2HGlo, sequence (A0A6N0JVZ6 1-238, other chains not shown): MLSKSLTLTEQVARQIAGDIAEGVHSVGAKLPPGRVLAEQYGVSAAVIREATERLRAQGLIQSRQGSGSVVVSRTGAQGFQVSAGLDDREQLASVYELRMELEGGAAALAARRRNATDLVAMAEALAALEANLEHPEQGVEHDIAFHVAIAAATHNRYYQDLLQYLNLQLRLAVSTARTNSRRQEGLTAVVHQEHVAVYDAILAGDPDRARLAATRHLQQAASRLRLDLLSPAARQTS

SMILES: O=CC[C@@H](O)[C@H](O)[C@H](O)CO [2-DG, 2-Deoxy-D-glucose]
acute change of Cyto-D2HGlo FRET ratio ([1]; 2-DG 10 mM): unaffected
concentration of D-2-HG in the supernatant ([2]; 2-DG 10 mM): reduced to levels comparable to untreated wildtype cells
acute change of Cyto-D2HGlo FRET ratio ([3]; 2-DG 10 mM, approximately 5.5 min): reduced the FRET ratio

SMILES: N#Cc1ccnc(N2C(=O)CC[C@H]2C(=O)N(c2cncc(F)c2)[C@H](C(=O)NC2CC(F)(F)C2)c2ccccc2Cl)c1 [AG-120]
D-2-HG levels (FRET ratio) ([1]; AG-120 3 µM, 48 h): no effect
D-2-HG concentration of supernatant ([2]; AG-120 3 µM): 2.88 ± 0.59 µM
2-HG levels in patients (mutant IDH1): reduction of 2-HG to levels resembling those seen in healthy populations
average FRET ratio of Cyto-, Nuc- and Mito-D2HGlo (D-2-HG level) ([3]; AG-120 3 µM, 48 h): reduced the average FRET ratio in all three compartments in IDH1 mutant cells to levels comparable with IDH1 wildtype cells; also recorded: decrease to levels resembling those found in IDH1 wildtype cells
acute change of Cyto-D2HGlo FRET ratio ([3]; AG-120 10 μM, 15 min following drug addition): did not result in acute changes

SMILES: CN(C)c1ccc(C2Nc3ccc4ccccc4c3C3=C2C(=O)CC(C)(C)C3)cc1Br (stereo not drawn) [Compound 968]
acute change of Cyto-D2HGlo FRET ratio ([1]; Compound 968 1 µM): did not elicit any changes
D-2-HG accumulation in cell culture supernatants ([2]; Compound 968 1 µM, wildtype and mutant cells (Fig. 5d)): nor did it effect D-2-HG accumulation
acute change of Cyto-D2HGlo FRET ratio ([3]; Compound 968 1 µM, approximately 5.5 min): did not elicit any changes

SMILES: O=C(O)CN(CCN(CC(=O)O)CC(=O)O)CC(=O)O [EDTA]
effect on D-2-HG induced FRET response of D2HGlo (D2HGlo; 1 mM EDTA in titration buffer): prevents D-2-HG induced changes to FRET ratio

response of D2HGlo (FRET ratio) to metabolite (D2HGlo): did not respond
SMILES: N[C@@H](CCC(=O)O)C(=O)O [Glutamate, L-glutamic acid]

response of D2HGlo (FRET ratio) to metabolite (D2HGlo): did not respond
SMILES: C[C@H](O)C(=O)[O-].[Na+] [Lactate, sodium L-lactate]

response of D2HGlo (FRET ratio) to metabolite (D2HGlo): did not respond
SMILES: CC(=O)C(=O)O [Pyruvate, Sodium pyruvate]
